Source: patent US6583154B1, “Compounds and methods which modulate feeding behavior and related diseases” (Amgen Inc., priority 1998, dated 2003)
Where a name gives a salt, the structure may show the parent alone.

Row | melting point | SMILES
1 | > 280 °C | Cc1nc(N2CCCCC2)c2[nH]c(-c3ccc(C(F)(F)F)cc3)c(C)c2n1.Cl
2 | > 280 °C | COc1ccc(-c2[nH]c3c(N4CCCCC4)nc(C)nc3c2C)cc1.Cl
3 | > 280 °C | Cc1nc(N2CCCCC2)c2[nH]c(-c3ccccc3)c(F)c2n1.Cl
4 | 263 to 267 °C | COc1ccc(Cc2cc3nc(C)nc(N4CCCCC4)c3[nH]2)cc1.Cl
5 | 254 to 255 °C | Cc1nc(N2CCCCC2)c2[nH]c(Cc3ccc(F)cc3)cc2n1.Cl
6 | > 280 °C | Cc1nc(N2CCCCC2)c2[nH]c(C)c(-c3ccc(F)cc3)c2n1.Cl
7 | 238 to 239 °C | Cc1nc(N2CCCCC2)c2[nH]c(COc3ccccc3)cc2n1.Cl
8 | > 280 °C | Cc1nc(N2CCCCC2)c2[nH]c(-c3ccc(F)c(F)c3)c(C)c2n1.Cl
9 | 202 to 203 °C (dec.) | Cc1nc(N2CCCCC2)c2sc(C(C)(C)C)cc2[n+]1[O-].Cl
10 | > 280 °C | Cc1cc(N2CCCCC2)c2oc(-c3ccccc3)cc2n1.Cl
11 | 172 to 173 °C | CCCCc1cc2nc(C)cc(N3CCCCC3)c2o1.Cl
12 | 287 to 289 °C (dec.) | Cc1nc(N2CCCCC2)c2[nH]c(-c3ccc(F)cc3)cc2n1.Cl
13 | > 280 °C | Cl.c1csc(-c2cc3ncnc(N4CCCCC4)c3[nH]2)c1
14 | > 280 °C | Cl.c1coc(-c2cc3ncnc(N4CCCCC4)c3[nH]2)c1
15 | 281 to 282.5 °C | Cc1c(-c2ccccc2)[nH]c2c(N3CCCCC3)ncnc12.Cl
16 | > 280 °C | Cc1nc(N2CCCCC2)c2[nH]c(-c3ccc(N)cc3)cc2n1 (as salt: hydrochloride)
17 | > 275 °C | Cc1nc(N2[C@H](C)CCC[C@@H]2C)c2[nH]c(-c3ccc(F)cc3)cc2n1 (as salt: hydrochloride) (hydrate or solvate)
18 | 226 to 229.5 °C | CC(C)Cc1nc(N2CCCCC2)c2[nH]c(-c3ccccc3)cc2n1 (as salt: hydrochloride) (hydrate or solvate)
19 | 270 to 276 °C | COc1nc(N2CCCCC2)c2[nH]c(-c3ccccc3)cc2n1 (as salt: hydrochloride) (hydrate or solvate)
20 | 195 to 200 °C | CNc1nc(N2CCCCC2)c2[nH]c(-c3ccccc3)cc2n1 (as salt: hydrochloride) (hydrate or solvate)
21 | 267.5 to 270 °C | c1ccc(-c2cc3nc(N4CCN(c5ccccc5)CC4)nc(N4CCCCC4)c3[nH]2)cc1 (as salt: hydrochloride) (hydrate or solvate)
22 | > 272 °C | c1ccc(-c2cc3nc(N4CCCC4)nc(N4CCCCC4)c3[nH]2)cc1 (as salt: hydrochloride) (hydrate or solvate)
23 | 279 to 281 °C | Cc1nc(N2CC=CCC2)c2sc(-c3ccccc3)cc2n1 (as salt: hydrochloride) (hydrate or solvate)

Row | melting point | SMILES
24 | > 290 °C | Cc1nc(N2CCCCC2)c2oc(-c3ccccc3)cc2n1 (as salt: hydrochloride) (hydrate or solvate)
25 | 278 to 278.3 °C | Cc1nc(N2CC=CC2)c2[nH]c(-c3ccccc3)cc2n1 (as salt: hydrochloride) (hydrate or solvate) [Example 61, 2-Methyl-6-phenyl-4-(pyrrolinyl)pyrrolo[3,2-d]pyrimidine Hydrochloride Monohydrate]
26 | 268 to 269 °C | Cc1nc(N2CCCCC2C)c2[nH]c(-c3ccccc3)cc2n1 (stereo not shown) (as salt: hydrochloride) (hydrate or solvate) [Example 63, 2-Methyl-6-phenyl-4-(2-methylpiperidinyl)pyrrolo(3,2-d)pyrimidine Hydrochloride Monohydrate]
27 | 228 to 229 °C | CCC1CCCCN1c1nc(C)nc2cc(-c3ccccc3)[nH]c12 (stereo not shown) (as salt: hydrochloride) (hydrate or solvate) [Example 64, 2-Methyl-6-phenyl-4-(2-ethylpiperidinyl)pyrrolo[3,2-d]pyrimidine Hydrochloride Hydrate]
28 | > 300 °C (dec.) | Nc1nc(N2CCCCC2)c2[nH]c(-c3ccccc3)cc2n1 (as salt: hydrochloride) (hydrate or solvate) [Example 66e, 6-Phenyl-4-piperidylpyrrolo[3,2-d]pyrimidine-2-yl Amine Hydrochloride Hydrate]
29 | > 275 °C | Cc1nc(N2CCCCC2)c2[nH]c(-c3cccc(N)c3)cc2n1 (as salt: hydrochloride) (hydrate or solvate) [Example 187, 3-(2-Methyl-4-piperidylpyrrolo[4,5-d]pyrimidin-6-yl)phenylamine Hydrochloride Monohydrate]
30 | > 296 °C | Cc1nc(N2CCCC2)c2[nH]c(-c3ccccc3)cc2n1 (as salt: hydrochloride) (hydrate or solvate) [Example 193, 2-Methyl-6-phenyl-4-pyrrolidinylpyrrolo[3,2-d]pyrimidine Hydrochloride Monohydrate]
31 | 165 to 170 °C | Cc1nc(NC[C@H]2CC[C@H](CNS(=O)(=O)c3cccc4ccccc34)CC2)c2[nH]c(-c3ccccc3)cc2n1 (as salt: hydrochloride) (hydrate or solvate) [Example 194, trans-[(4-{[(2-Methyl-6-phenylpyrrolo[2,3-e]pyrimidin-4-yl)amino]methyl}cyclohexyl)methyl](naphthylsulfonyl)amine Hydrochloride Hydrate]
32 | 258 to 262.5 °C | CCCc1nc(N2CCCCC2)c2[nH]c(-c3ccccc3)cc2n1 (as salt: hydrochloride) (hydrate or solvate) [Example 196c, 6-Phenyl-4-piperidyl-2-propylpyrrolo[3,2-d]pyrimidine Hydrochloride Monohydrate]
33 | > 270 °C | Cc1nc(N2CC=CC2)c2[nH]c(-c3cccc(C(F)(F)F)c3)cc2n1 (as salt: hydrochloride) (hydrate or solvate) [Example 197d, 2-Methyl-4-(3-pyrrolinyl)-6-[3-(trifluoromethyl)phenyl]pyrrolo[3,2-d]pyrimidine Hydrochloride Monohydrate]
34 | 287.5 to 293 °C | Cc1nc(N2CC=CC2)c2[nH]c(-c3cccc(Cl)c3)cc2n1 (as salt: hydrochloride) (hydrate or solvate) [Example 198, 6-(3-Chlorophenyl)-2-methyl-4-(3-pyrrolinyl)pyrrolo[3,2-d]pyrimidine Hydrochloride Hydrate]
35 | 170 to 171.5 °C | CCc1nc(N2CCc3ccccc3C2)c2[nH]c(-c3ccccc3)cc2n1 (as salt: hydrochloride) (hydrate or solvate) [Example 202, 2-Ethyl-6-phenyl-4-(2-1,2,3,4-tetrahydroisoquinolyl)pyrrolo[3,2-d]pyrimidine Hydrochloride Monohydrate]
36 | > 300 °C | CN(C)c1nc(N2CCCCC2)c2[nH]c(-c3ccccc3)cc2n1 (as salt: hydrochloride) (hydrate or solvate) [Example 203, Hydrochloride Hydrate]
37 | > 280 °C | Fc1ccc(-c2cc3nc(C4CC4)nc(N4CCCCC4)c3[nH]2)cc1 (as salt: hydrochloride) (hydrate or solvate) [Example 209c, 2-Cyclopropyl-6-(4-fluorophenyl)-4-piperidylpyrrolo[3,2-d]pyrimidine Hydrochloride Hydrate]
38 | > 300 °C | Cc1nc(N2CCc3ccccc32)c2[nH]c(-c3ccccc3)cc2n1 (as salt: hydrochloride) (hydrate or solvate) [Example 215, 4-Indolinyl-2-methyl-6-phenylpyrrolo[3,2-d]pyrimidine Hydrochloride Hydrate]
39 | 279 to 280 °C | Cc1nc(N2CC=CC2)c2oc(-c3ccccc3)cc2n1 (as salt: hydrochloride) (hydrate or solvate) [Example 216c, 2-Methyl-6-phenyl-4-(3-pyrrolinyl)furano[3,2-d]pyrimidine Hydrochloride Hydrate]
40 | 285 to 287 °C | Cc1nc(N2CCCCC2)c2sc(-c3ccc(F)cc3)cc2n1 (as salt: hydrochloride) (hydrate or solvate) [Example 217, 6-(4-Fluorophenyl)-2-methyl-4-piperidylthiopheno[3,2-d]pyrimidine Hydrochloride Hydrate]
41 | 253 to 254 °C | Cc1nc(-n2cccn2)c2[nH]c(-c3ccccc3)cc2n1 (as salt: hydrochloride) (hydrate or solvate) [Example 218, 2-Methyl-6-phenyl-4-pyrazolypyrrolo[3,2-d]pyrimidine Hydrochloride Hydrate]
42 | 242 to 243 °C | Cc1nc(N2C(C)C=CC2C)c2[nH]c(-c3ccccc3)cc2n1 (stereo not shown) (as salt: hydrochloride) (hydrate or solvate) [Example 220, 4-(2,5-Dimethyl(3-pyrrolinyl)-2-methyl-6-phenylpyrrolo[3,2-d]pyrimidine Hydrochloride Hydrate]
43 | 263 to 265 °C | Cc1nc(N2CCc3ccccc3C2)c2sc(-c3ccccc3)cc2n1 (as salt: hydrochloride) (hydrate or solvate) [Example 221b, 2-Methyl-6-phenyl-4-[2-1,2,3,4-tetrahydroisoquinolyl)thiopheno[3,2-d]pyrimidine Hydrochloride Hydrate]
44 | 242 to 243 °C | Cc1nc(N2CCN(S(=O)(=O)c3ccccc3)CC2)c2[nH]c(-c3ccccc3)cc2n1 (as salt: hydrochloride) (hydrate or solvate) [Example 227, 1-(2-Methyl-6-phenylpyrrolo[2,3-e]pyrimidin-4-yl(phenylsulfonyl)piperazine Hydrochloride Monohydrate]
45 | 293 to 294 °C | Cc1nc(N2CCCCC2)c2[nH]c(-c3ccccc3)cc2n1 (as salt: hydrochloride) [Example 35, 2-methyl-6-phenyl-4-(piperidinyl)pyrrolo[3,2-d]pyrimidine]
46 | 273 to 273.5 °C | Cc1nc(N2CCCCC2CCO)c2[nH]c(-c3ccccc3)cc2n1 (stereo not shown) (as salt: hydrochloride) [Example 62, 2-Methyl-6-phenyl-4-(2-piperidineethanolyl)pyrrolo(3,2-d)pyrimidine Hydrochloride]
